Measured values published in US20240139167A1, “LYSOSOME-ASSOCIATED MEMBRANE PROTEIN TARGETING COMPOUNDS AND USES THEREOF” (HADASIT MEDICAL RESEARCH SERVICES AND DEVELOPMENT LTD., priority 2021, published 2024).

Experiments:
[1] = tested on: HC and APBD patient skin fibroblasts; test: Seahorse ATP Rate Assay under glycogen burden; format: cell-based, human
Experimental: FIGS. 4A-4D include a bar graph of PAS staining for total glycogen in skin fibroblasts from different APBD patients (4A), images of PAS staining for total glycogen in APBD87 fibroblasts glucose-starved for 48 h (left), or glucose starved and then replenished for the last 24 h to induce glycogen burden (right) (4B), image acquisition was done by Nikon Eclipse Ti2 microscope using a 40×PlanFluor objective and CY3 filter; graph of image-based multiparametric phenotyping of APBD fibroblasts under 48 h glucose-starvation, or starvation and glucose replenishment as in 4B (4C), level of significance p=0.01; and bar graph of glycolytic and mitochondrial ATP production determined by Agilent's Seahorse machine and ATP rate assay kit (4D). Healthy control (HC) and APBD patient fibroblasts were untreated or treated with 10 μM Compound 1 for 48 h (chronic), or on assay for 20 min (acute). Readings were normalized to cell number as determined by Crystal Violet staining. Shown are mean and SD values based on n=6 repeats.
The RQ shift towards carbohydrate catabolism observed in vivo prompted the inventors to investigate whether carbohydrate catabolism is also up-modulated intracellularly. To that end, and especially since glycogen levels are highly versatile among fibroblasts derived from different APBD patients (FIG. 4A), the inventors first aimed at inducing a physiological glycogen overload, or glycogen burden condition, equivalent to the one found in tissues. […] Therefore, the inventors selected this glycogen burden condition to analyze catabolism at a cell level using an ATP Rate Assay (Agilent's Seahorse ATP Rate Assay). The results

APBD cells = test: Proteomics (nano LC-MS/MS, LFQ); format: cell-based, human
Experimental: Sample preparation for MS analysis. Cell lysates in RIPA buffer containing protease inhibitors were clarified by centrifugation and […] of protein was used for protein precipitation by the chloroform/methanol method. The precipitated proteins were solubilized in 100 μl of 8 M urea, 10 mM DTT, 25 mM Tris-HCl pH 8.0 and incubated for 30 min at 22 ° C. Iodoacetamide (55 mM) was added, and samples were incubated for 30 min (22 ° C., in the dark), followed by addition of DTT (10 mM). Fifty μl of the samples was transferred into a new tube, diluted by the addition of 7 volumes of 25 mM Tris-HCl pH 8.0 and sequencing-grade modified Trypsin (Promega Corp., Madison, WI) was added (0.35 μg/sample) followed by incubation overnight at 37° C. with gentle agitation. The samples were acidified by addition of 0.2% formic acid and desalted on C18 home-made Stage tips. Peptide concentration was determined by Absorbance at 280 nm and 0.75 μg of peptides were injected into the mass spectrometer.
Nano LC-MS/MS analysis. MS analysis was performed using a Q Exactive-HF mass spectrometer (Thermo Fisher Scientific, Waltham, MA USA) coupled on-line to a nanoflow UHPLC instrument, Ultimate 3000 Dionex (Thermo Fisher Scientific, Waltham, MA USA). Peptides dissolved in 0.1% formic acid were separated without a trap column over a 120 min acetonitrile gradient run at a flow rate of 0.3 μl/min on a reverse phase 25-cm-long C18 column (75 μm ID, 2 μm, 100 Å, Thermo PepMapRSLC). The instrument settings were as previously described. Survey scans (300-1,650 m/z, target value 3E6 charges, maximum ion injection time 20 ms) were acquired and followed by higher energy collisional dissociation (HCD)-based fragmentation (normalized collision energy 27). A resolution of 60,000 was used for survey scans and up to 15 dynamically chosen most abundant precursor ions, with “peptide preferable” profile were fragmented (isolation window 1.6 m/z). The MS/MS scans were acquired at a resolution of 15,000 (target value 1E5 charges, maximum ion injection times 25 ms). Dynamic exclusion was 20 sec. Data were acquired using Xcalibur software (Thermo Scientific). To avoid a carryover, the column was washed with 80% acetonitrile, 0.1% formic acid for 25 min between samples.
MS data analysis. Mass spectra data were processed using the MaxQuant computational platform, version 1.6.14.0. Peak lists were searched against the Uniprot human FASTA sequence database from May 19, 2020, containing 49,974 entries. […] Relative protein quantification in MaxQuant was performed using the label-free quantification (LFQ) algorithm. […]
To validate the imaging-based analysis of the cell features modulated by the diseased state and by Compound 1, the inventors analyzed the effect of the disease and the treatment on protein expression. […]

[2] = both HC and APBD fibroblasts, glycogen burden

## COCCN(Cc1sccc1C)C(=O)c1cc(C)nc(O)c1 [Compound 1]
[1]
  augmenting glycolytic contribution to ATP production: acute on assay supplementation vs 48 h pretreatment: more effective
[1]; [2]
  overall ATP production: increased
  relative contribution of glycolytic ATP production at the expense of mitochondrial (OxPhos) ATP production: increased
APBD cells
  number of proteins down-modulated by APBD and up-modulated by compound: 49
  number of proteins up-modulated by APBD and down-modulated by compound: 39
APBD cells; glycogen overladen (48 h starvation/24 h Gluc)
  share of all proteins modified: 1.3%
APBD cells; starved (48 h starvation)
  share of all proteins modified: 1.7%
